# Test results: US11820822B2, “Methods for sensitizing cancer cells to T cell-mediated killing by modulating molecular pathways” (DANA-FARBER CANCER INSTITUTE, INC., priority 2017, dated 2023)
# B1: IFNγ: cytokine used to stimulate B16F10 cells (protein, UniProt P01580 23-155, looked up)
# Interferon gamma: HGTVIESLESLNNYFNSSGIDVEEKSLFLDIWRNWQKDGDMKILQSQIISFYLRLFEVLKDNQAISNNISVIESHLITTFFSNSKAKKDAFMSIAKFEVNNPQVQRQAFNELIRVVHQLLPESSLRKRKRSRC
# Key:
# Format in all cases: cell-based, mouse
# [1] = test system: Otulin, Dusp6 and Nf1 knockout B16F10 cells; test: Doxorubicin-induced cell death; details: Dusp6 or Nf1 inactivated B16F10-Cas9 cells vs control cells, 24 or 48 hours
# Procedure: The knockout cell lines (GFP+) were mixed with control cells (GFP−) at 1:1 ratio. The mixture of cells was then seeded at 200,000 cells/well in a 6-well plate. Eighteen hours after seeding, different doses of doxorubicin (Sigma-Aldrich, D1515) as indicated in FIG. 11 were added to the cell culture (triplicate wells per condition). After 24 or 48 hours, cells were harvested and stained with DAPI (5 μg/ml) for 5 minutes in PBS with 2% FBS at room temperature. The ratio of GFP+/GFP−was determined by FACS (gated on DAPI− for live cells).
# [2] = test system: B16F10-Cas9 cells co-cultured with Pmel-1 T cells; test: Genome-scale CRISPR-Cas9 screen, selection with Pmel-1 T cells; details: Table 3; B16F10-Cas9 cells pre-treated with IFNγ, co-cultured with Pmel-1 T cells 1:1 for three days; negative = depleted, positive = enriched
# [3] = test system: B16F10-Cas9 cells pulsed with SIINFEKL peptide, co-cultured with OT-I T cells; test: Genome-scale CRISPR-Cas9 screen, selection with OT-I T cells; details: Table 3; B16F10-Cas9 cells pulsed with SIINFEKL, co-cultured with OT-I T cells 1:1 for one day; negative = depleted, positive = enriched
# B16F10-Cas9 cells = test: PD-L1 expression by FACS after IFNγ stimulation (Cas9 editing efficiency of B16F10-Cas9 clones); details: B16F10 tumor cells, IFNγ 10 ng/ml for 24 hours
# Procedure: To acquire clones with high Cas9 activity, B16F10-Cas9 cells were single-cell sorted into 96-well plates. Multiple were infected with lentivirus driving expression of a gRNA specific for Cd274 and mCherry. Ten days post-infection, each individual clone was stimulated with 10 ng/ml of IFNγ for 24 hours and the expression of PD-L1 was determined by fluorescence-activated cells sorting (FACS) using an anti-Cd274 antibody (clone 10F.9G2, BioLegend, #124311). Cas9 efficiency was determined by the percentage of PD-L1 negative cells in the transduced (mCherry+) population.
Molecule,sensitivity to doxorubicin induced cell death [1],"Pmel+ (sgRNA Log(2) fold change, Pmel-1 selection versus control T cells) [2]","OT1 (sgRNA Log(2) fold change, OT-I selection versus control T cells) [3]",PD-L1 expression (B16F10-Cas9 cells)
COc1cccc2c1C(=O)c1c(O)c3c(c(O)c1C2=O)C[C@@](O)(C(=O)CO)C[C@@H]3O[C@H]1C[C@H](N)[C@H](O)[C@H](C)O1 [doxorubicin],did not render them more sensitive,,,
TTACACGACCCGAATAGCGA (chemistry not fully specified),,3.22,-2.14,
TTACCCCCTACTACACTGGA (chemistry not fully specified),,-2.24,-2.56,
TTACTGAGGCTCGATTGGGA (chemistry not fully specified),,0.41,-3.59,
TTAGTTCTGGCAAAGCGCCG (chemistry not fully specified),,-2.54,-2.23,
TTATTGAGTCAAGAAAAGGT (chemistry not fully specified),,-1.87,-3.67,
TTCAAAGCAAGGCTCTACTG (chemistry not fully specified),,-0.93,-2.28,
TTCAGATTCAGACATCAGAT (chemistry not fully specified),,0.00,-2.07,
TTCAGGGTGAAATACGAGGA (chemistry not fully specified),,5.32,3.43,
TTCGGACAAATACGACGACG (chemistry not fully specified),,0.00,-2.32,
TTGTCCGCGTTACTTCCCTG (chemistry not fully specified),,0.07,-2.50,
TTGTGAGGCAAACTGAACGA (chemistry not fully specified),,-0.86,-2.11,
TTGTGCCTAAACAAAAAACA (chemistry not fully specified),,0.85,-2.52,
TTTACAATCCTCCAAAGTCG (chemistry not fully specified),,-0.68,-3.13,
B1,,,,strong upregulation
